According to patent US4994554A, “Probursin” (Immunobiology Research Institute, Inc., priority 1988, dated 1991):
Where no end group is shown, it is not given here.

Assays:
[1] = system: SV40 transformed hamster beta cells (HIT); assay: Growth hormone inhibition: GRF-stimulated 3H inositol phosphate (IP) release and growth hormone (GH) accumulation, RIA of supernatant; type: cell-based; settings: for [GH] / [IP]: 15 min
Description: An assay was performed to study the effect of probursin in combination with growth hormone releasing factor (GRF) as this combination effects the release of ^3 H inositol phosphate (IP) and growth hormone (GH) accummulation in SV40 transformed hamster beta cells (HIT). The experiment was performed according to the procedures described in M. J. Berridge et al, cited above.
Briefly described, commercially available HIT cells were incubated at 37° C. for 1 hour in metabolic RPMI medium with 5% fetal calf serum (FCS). GRF in varying concentrations indicated in the Table below was added to the cell culture and incubated for 15 minutes at 37° C. The cells were then centrifuged at 800 rpm and the supernatant collected. Levels of GH and IP were measured in the supernatant by radioimmunoassay (RIA) also according to Berridge et al. These measurements formed the GRF control.
The same procedure was followed without the addition of GRF and is indicated below as the control.
Similarly, to indicate the effect of probursin on GRF, the procedure above was followed except that GRF and probursin at the appropriate concentrations indicated in the Table below were added to the cells together and followed by 15 minutes incubation and centrifugation. When the supernatant was measured by RIA as described above, the resulting concentrations of IP and GH were determined as illustrated in the Table below.

[2] = system: MOPC-315 cells; assay: Cyclic GMP assay in MOPC-315 cells; type: cell-based; settings: 0 to 1000 micrograms/ml, FIG. 5B
[3] = system: Daudi cells; assay: Cyclic GMP assay in Daudi cells; type: cell-based; settings: 0 to 1000 micrograms/ml, FIG. 5A
Description: Daudi cells were freshly seeded and grown for 2 days with harvesting as described in T. Audhya et al, Arch. Biochem Biophys., 234:167-177 (1984). The cells were washed 3 times in PBS and resuspended in RPMI 1640 at a concentration of 1.0×10^7 cells/ml and were allowed to equilibrate at 37° C. for 30 minutes before the addition of the test compounds (25 ul) of bursin and probursin, and control peptides porcine insulin (A), equine myoglobin (B) and bovine growth hormone (C). The incubation was allowed to proceed in a shaking water bath for 4-5 minutes and was then terminated by addition of 1 ml ice-cold TCA (10%).
The cells in TCA were homogenized and sonicated to release cyclic nucleotide. The suspension was centrifuged at 3000×g for 20 minutes at 4° C. The resulting precipitate was dissolved in 0.1 N NaOH to determine the protein content. TCA was removed from the supernatant fraction by extracting 4 times with 5 ml of water-saturated diethyl ether. […]
Dose-response curves from 0 to 1000 micrograms/ml were evaluated for bursin, probursin and controls. […] A threshold activity was determined for each peptide tested. […] Test results were considered positive if the level of cyclic GMP was greater than 1.52 times (2 standard deviations) that determined for the parallel negative control.

[4] = system: Anti-bursin antiserum; assay: ELISA blocking of anti-bursin antiserum binding by absorbants; set-up: species or system rabbit; settings: FIG. 3B
Description: Antisera were tested for activity in the following ELISA protocol. The assays were performed according to the method of Voller et al, Bull. WHO, 53:55 (1976). Briefly, polyvinyl chloride microtiter plates (Fisher Scientific, Springfield, N.J.) were coated overnight with 100 ul/well of 10 ug/ml solution of tetramer of probursin in 0.1 M phosphate buffer, pH 7.2. Plates were washed and were postcoated with 150 ul/well of 0.5 percent bovine serum albumin in PBS, pH 7.2, for one hour at room temperature. Plates were washed, dried at 37° C. for 6-24 hours and sealed in dessicated packages and stored at 4° C.
Antisera to be tested were diluted in PBS containing 0.05 percent Tween 20. One hundred ul of the diluted sera were added per well in triplicates. Normal rabbit or mouse serum was used as the negative control. After 60 minutes of incubation at room temperature the plates were washed three times with PBS Tween-20. One hundred ul of alkaline phosphatase conjugated to affinity-purified goat anti-rabbit IgG (heavy and light chains) diluted 1:2000 in PBS Tween-20 were added to each well. The plates were incubated at room temperature for 60 minutes. […] After 30 minutes of incubation at room temperature the reaction was terminated with the addition of 50 ul/well of 5 N NaOH and the optical density was read at 410 nm. […]

[5] = GRF (0.1 nM) + Probursin (.1 μM)
[6] = GRF (1 nM) + Probursin (0.1 μM)
[7] = GRF (1 nM) + Probursin (1.0 μM)
[8] = GRF (10 nM) + Probursin (10.0 μM)
[9] = GRF 0.1 nM alone, HIT cell supernatant
[10] = GRF 1 nM alone, HIT cell supernatant
[11] = GRF 10 nM alone, HIT cell supernatant

How did the “[GH]” value [1, 5] turn out when “FFWKTKPRKHGGRR [Probursin, Phe-Phe-Trp-Lys-Thr-Lys-Pro-Arg-Lys-His-Gly-Gly-Arg-Arg]” was run?
The value was 35 ± 4 n/ml.

What about the “[IP]” value [1, 5] of the same substance?
The value was 239 ± 13 cpm.

What about the “[GH]” value [1, 6] of the same substance?
The value was 480 ± 31 n/ml.

And the “[IP]” value [1, 6]?
The value was 1911 ± 310 cpm.

What about the “[GH]” value [1, 7] of the same substance?
Its value is 77 ± 6 n/ml.

And the “[IP]” value [1, 7]?
The value was 444 ± 22 cpm.

And the “[GH]” value [1, 8]?
The value was 29 ± 3 n/ml.

What about the “[IP]” value [1, 8] of the same substance?
Its value is 382 ± 16 cpm.

And the “effect on growth hormone releasing factor action (IP and GH)” value ([1]; HIT cells, summary in words)?
Its value is “marked suppression”.

And the “release of growth hormone” value ([1]; summary in words, refers to Example 6)?
The value was “inhibit”.

What about the “induction of intracellular cyclic GMP (dose-response)” value [2] of the same substance?
The value was “active”.

What about the “induction of intracellular cyclic GMP (dose-response)” value [3] of the same substance?
Its value is “active”.

And the “blocking of anti-bursin antiserum binding” value [4]?
Its value is “blocked”.

Which results are given for “GRF: growth hormone releasing factor, stimulus in HIT cell assay (YADAIFTNSYRKVLGQLSARKLLQDIMSRQQGESNQERGARARL; ends and bridges not checked; UniProt P01286 32-75, looked up) [reference compound]”?
[GH] [1, 9]: 162 ± 4 n/ml; [IP] [1, 9]: 489 ± 19 cpm; [GH] [1, 10]: 648 ± 26 n/ml; [IP] [1, 10]: 2810 ± 290 cpm; [GH] [1, 11]: 1162 ± 84 n/ml; [IP] [1, 11]: 8962 ± 821 cpm
